In patent US20140206615A1, “GLP-1 AGONIST AND CARDIOVASCULAR COMPLICATIONS” (NOVO NORDISK A/S, priority 2002, published 2014):

System: BNP in heart tissue
Assay: BNP mRNA and protein levels in cardiac biopsies of STZ-treated pigs (real-time PCR, RIA)
Format: in vivo, pig
Conditions: streptozotocin (STZ)-treated pigs; 3.3 μg/kg s.c. once daily for 4 weeks; right atrial, left atrial and left ventricular biopsies; FIG. 1
Description: Hearts from 12 streptozotocin (STZ)-treated pigs were collected. The pigs were treated with STZ 2 weeks prior to dosing with either the GLP-1 derivative Arg^34, Lys^26(N^ε-(γ-Glu(N^α-hexadecanoyl)))-GLP-1(7-37) (NN2211) for 4 weeks, dose 3.3 μg/kg s.c. once daily, or vehicle. STZ-treated pigs were either hyperglycemic or glucose intolerant and had impaired insulin secretion upon oral glucose tolerance tests. BNP mRNA and protein levels in cardiac biopsies were measured with real-time PCR and RIA assays, respectively. BNP mRNA levels were normalized by β-actin mRNA levels.
BNP mRNA levels were similar in right atrial (RA), left atrial (LA) and in left ventricular (LV) biopsies from vehicle treated diabetic pigs (−GLP).

With CCCCCCCCCCCCCCCC(=O)N[C@@H](CCC(=O)NCCCC[C@H](NC(=O)[C@H](C)NC(=O)[C@H](C)NC(=O)[C@H](CCC(N)=O)NC(=O)CNC(=O)[C@H](CCC(=O)O)NC(=O)[C@H](CC(C)C)NC(=O)[C@H](Cc1ccc(O)cc1)NC(=O)[C@H](CO)NC(=O)[C@H](CO)NC(=O)[C@@H](NC(=O)[C@H](CC(=O)O)NC(=O)[C@H](CO)NC(=O)[C@@H](NC(=O)[C@H](Cc1ccccc1)NC(=O)[C@@H](NC(=O)CNC(=O)[C@H](CCC(=O)O)NC(=O)[C@H](C)NC(=O)[C@@H](N)Cc1cnc[nH]1)[C@@H](C)O)[C@@H](C)O)C(C)C)C(=O)N[C@@H](CCC(=O)O)C(=O)N[C@@H](Cc1ccccc1)C(=O)N[C@H](C(=O)N[C@@H](C)C(=O)N[C@@H](Cc1c[nH]c2ccccc12)C(=O)N[C@@H](CC(C)C)C(=O)N[C@H](C(=O)N[C@@H](CCCNC(=N)N)C(=O)NCC(=O)N[C@@H](CCCNC(=N)N)C(=O)NCC(=O)O)C(C)C)[C@@H](C)CC)C(=O)O [NN2211, Arg^34, Lys^26(N^ε-(γ-Glu(N^α-hexadecanoyl)))-GLP-1(7-37)] the “levels of BNP (BNP mRNA normalized by β-actin mRNA) in cardiac biopsies vs vehicle” value was “significantly lower”.
